Data taken from patent publication US12661410B2, “Compounds for targeted degradation of RET” (C4 Therapeutics, Inc., priority 2020, dated 2026).
Residue numbers refer to the chain shown, from its start. Like-named read-outs stand apart in the source and are kept apart here.

Legend:
RET(KD: 658-1114 G810R) = biological target: T1, RET(KD: 658-1114 G810R) (Homo sapiens, UniProt P07949, G810R); experiment: HiBiT-Degradation, RET G810R degradation assay (Nano-Glo HiBiT Lytic), 293T.165 cells; assay type: cell-based; settings: for Emax / DC50: 6.0 hours
T1 construct: 658-1114; expressed in transfected cells; host or cells: 293T.165 (293T cells, generated in-house)
T1 sequence (P07949 658-1114 G810R): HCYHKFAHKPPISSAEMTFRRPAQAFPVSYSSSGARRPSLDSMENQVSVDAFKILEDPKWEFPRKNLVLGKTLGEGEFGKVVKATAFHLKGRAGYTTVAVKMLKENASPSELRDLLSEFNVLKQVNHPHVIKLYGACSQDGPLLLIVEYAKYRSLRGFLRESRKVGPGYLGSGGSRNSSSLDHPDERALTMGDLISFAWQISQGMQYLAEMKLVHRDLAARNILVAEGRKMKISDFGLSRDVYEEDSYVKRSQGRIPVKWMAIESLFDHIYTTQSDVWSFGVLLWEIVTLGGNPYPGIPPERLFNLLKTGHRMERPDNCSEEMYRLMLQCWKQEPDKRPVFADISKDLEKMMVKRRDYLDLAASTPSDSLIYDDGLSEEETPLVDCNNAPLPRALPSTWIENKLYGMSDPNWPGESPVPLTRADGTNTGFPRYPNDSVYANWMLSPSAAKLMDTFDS
Summary of the method: (§1)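 Luminescence readout of HiBiT-tagged RET kinase domain remaining after 6 h compound exposure. Cells: 293T.144 (wild type) or 293T.165 (G810R), 11 half-log doses up to 10 μM, duplicates. DC50 and Emax as % remaining protein taken from curve fits.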

RET (658-1114) = biological target: T2, RET (658-1114) (Homo sapiens, UniProt P07949); experiment: HiBiT-Degradation, RET wild-type degradation assay (Nano-Glo HiBiT Lytic), 293T.144 cells; assay type: cell-based; settings: for Emax / DC50: 6.0 hours
T2 construct: 658-1114; expressed in transfected cells; host or cells: 293T.144 (293T cells, generated in-house)
T2 sequence (P07949 658-1114): T1 sequence (P07949 658-1114 G810R) with R153G
Summary of the method: as §1

[1] = % remaining protein, read-out: 293T.165 RET(KD: 658-1114 G810R) 6.0 hours (Emax)
[2] = half-maximal degradation concentration, read-out: 293T.165 RET(KD: 658-1114 G810R) 6.0 hours (DC50)
[3] = % remaining protein, read-out: 293T.144 RET (658-1114) 6.0 hours (Emax)
[4] = half-maximal degradation concentration, read-out: 293T.144 RET (658-1114) 6.0 hours (DC50)

Row | Compound | 293T.165 RET(KD: 658-1114 G810R) 6.0 hours (IP) [nM] (RET(KD: 658-1114 G810R)) | Emax (RET(KD: 658-1114 G810R); [1]) [%] | DC50 (RET(KD: 658-1114 G810R); [2]) [nM] | 293T.144 RET (658-1114) 6.0 hours (IP) [nM] (RET (658-1114)) | Emax (RET (658-1114); [3]) [%] | DC50 (RET (658-1114); [4]) [nM] | HiBiT-Degradation 293T.165 RET(KD: 658-1114 G810R) 6.0 hours (IP) [nM] (RET(KD: 658-1114 G810R); RET G810R) | DC50 (RET(KD: 658-1114 G810R); RET G810R, read-out: HiBiT-Degradation 293T.165 RET(KD: 658-1114 G810R) 6.0 hours (DC50)) [nM] | Emax (RET(KD: 658-1114 G810R); RET G810R, read-out: HiBiT-Degradation 293T.165 RET(KD: 658-1114 G810R) 6.0 hours (Emax)) [%] | HiBiT-Degradation 293T.144 RET (658-1114) 6.0 hours (IP) [nM] (RET (658-1114); RET wild-type) | DC50 (RET (658-1114); RET wild-type, read-out: HiBiT-Degradation 293T.144 RET (658-1114) 6.0 hours (DC50)) [nM] | Emax (RET (658-1114); RET wild-type, read-out: HiBiT-Degradation 293T.144 RET (658-1114) 6.0 hours (Emax)) [%] | 293T.165 RET(KD: 658-1114 G810R) 6.0 hours (Emax) (RET(KD: 658-1114 G810R); HiBiT-Degradation) | 293T.165 RET(KD: 658-1114 G810R) 6.0 hours (IP) [nM] (RET(KD: 658-1114 G810R); HiBiT-Degradation) | DC50 (RET(KD: 658-1114 G810R); HiBiT-Degradation, read-out: 293T.165 RET(KD: 658-1114 G810R) 6.0 hours (DC50)) [nM] | 293T.144 RET (658-1114) 6.0 hours (IP) [nM] (RET (658-1114); HiBiT-Degradation) | DC50 (RET (658-1114); HiBiT-Degradation, read-out: 293T.144 RET (658-1114) 6.0 hours (DC50)) [nM] | Emax (RET (658-1114); HiBiT-Degradation, read-out: 293T.144 RET (658-1114) 6.0 hours (Emax)) [%]
1 | COc1ccc(CC2(O)CCN(c3ccc(-c4nc(-c5cnn([C@H]6CC[C@H](N7CCN(c8cc(OC)c(NC9CCC(=O)NC9=O)cc8F)CC7)CC6)c5)cn5ncc(C#N)c45)cn3)CC2)nc1 (stereo partly shown) [Compound 215, 6-[1-[4-[4-[4-[(2,6-dioxo-3-piperidyl)amino]-2-fluoro-5-methoxy-phenyl]piperazin-1-yl]cyclohexyl]pyrazol-4-yl]-4-[6-[4-hydroxy-4-[(5-methoxy-2-pyridyl)methyl]-1-piperidyl]-3-pyridyl]pyrazolo[1,5-a]pyrazine-3-carbonitrile] | ++++ (<50 nM = ++++) | < 30 | < 50 | ++++ (<50 nM = ++++) | < 30 | < 50 | – | – | – | – | – | – | – | – | – | – | – | –
2 | CCC1(C(=O)NC(C)C)CCN(c2ccc(-c3nc(-c4cnn(C5CCN(C(=O)CC6(O)CCN(c7ccc(N[C@H]8CCC(=O)NC8=O)cc7F)CC6)CC5)c4)cn4ncc(C#N)c34)cn2)CC1 (single isomer, unassigned) [Compound 80] | – | < 50 | < 50 | – | – | – | ++++ (< 50 nM = ++++) | < 50 | < 50 | ++++ (< 50 nM = ++++) | < 50 | < 30 | – | – | – | – | – | –
3 | CCC1(C(=O)NC2CCC2)CCN(c2ccc(-c3nc(-c4cnn([C@H]5CC[C@H](N6CCC(c7ccc(NC8CCC(=O)NC8=O)cc7)CC6)CC5)c4)cn4ncc(C#N)c34)cn2)CC1 (single isomer, unassigned) [Compound 126, 1-(5-(3-cyano-6-(1-((1r, 4r)-4-(4-(4-((2,6-dioxopiperidin-3-yl)amino)phenyl)piperidin-1-yl)cyclohexyl)-1H-pyrazol-4-yl)pyrazolo[1,5-a]pyrazin-4-yl)pyridin-2-yl)-N-cyclobutyl-4-ethylpiperidine-4-carboxamide] | ++++ (<50 nM = ++++) | < 30 | < 50 | ++++ (<50 nM = ++++) | < 30 | < 50 | – | – | – | – | – | – | – | – | – | – | – | –
4 | CCC1(C(=O)NC2CCC2)CCN(c2ccc(-c3nc(-c4cnn([C@H]5CC[C@H](N6CCN(c7c(F)cc(N[C@H]8CCC(=O)NC8=O)cc7F)CC6)CC5)c4)cn4ncc(C#N)c34)cn2)CC1 (single isomer, unassigned) [Compound 136] | ++++ (<50 nM = ++++) | < 30 | < 50 | ++++ (<50 nM = ++++) | < 30 | < 50 | – | – | – | – | – | – | – | – | – | – | – | –
5 | CCC1(C(=O)NC(C)C)CCN(c2ccc(-c3nc(-c4cnn(C5CCN(C(=O)CN6CCC(c7ccc(NC8CCC(=O)NC8=O)cc7)CC6)CC5)c4)cn4ncc(C#N)c34)cn2)CC1 (stereo not shown) [Compound 31, 1-(5-(3-Cyano-6-(1-(1-(2-(4-(4-((2,6-dioxopiperidin-3-yl)amino)phenyl)piperidin-1-yl)acetyl)piperidin-4-yl)-1H-pyrazol-4-yl)pyrazolo[1,5-a]pyrazin-4-yl)pyridin-2-yl)-4-ethyl-N-isopropylpiperidine-4-carboxamide] | – | < 30 | < 50 | – | – | – | – | – | – | – | – | – | ++++ (< 30% = ++++) | ++++ (< 50 nM = ++++) | < 50 | ++++ (< 50 nM = ++++) | < 50 | < 30
